Test results as given in ChEMBL document CHEMBL5528076, “Development of Selective Pyrido[2,3-d]pyrimidin-7(8H)-one-Based Mammalian STE20-Like (MST3/4) Kinase Inhibitors” (J Med Chem, 2024).
pEC50: −log10 of the molar value.

What was measured:
[1] = target: T1, Serine/threonine-protein kinase 4 (Homo sapiens, UniProt Q13043); experiment: Inhibition of MST1 (unknown origin) expressed in HEK293T cells using NanoGlo as substrate incubated for 20 hrs by NanoBRET assay; type: cell-based
T1 sequence (Q13043 whole entry): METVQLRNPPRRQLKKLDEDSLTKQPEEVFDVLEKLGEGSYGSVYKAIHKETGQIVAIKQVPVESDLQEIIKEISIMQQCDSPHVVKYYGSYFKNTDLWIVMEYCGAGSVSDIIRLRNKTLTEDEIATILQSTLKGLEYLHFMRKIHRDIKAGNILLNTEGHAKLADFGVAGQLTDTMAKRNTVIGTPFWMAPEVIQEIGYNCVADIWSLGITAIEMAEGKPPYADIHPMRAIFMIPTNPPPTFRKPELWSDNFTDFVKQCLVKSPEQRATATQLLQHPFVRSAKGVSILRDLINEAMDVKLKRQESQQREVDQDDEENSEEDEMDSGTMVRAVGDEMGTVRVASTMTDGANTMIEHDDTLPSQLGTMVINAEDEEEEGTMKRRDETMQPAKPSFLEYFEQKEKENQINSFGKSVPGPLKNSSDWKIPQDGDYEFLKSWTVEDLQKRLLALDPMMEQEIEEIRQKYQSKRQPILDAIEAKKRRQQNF

[2] = target: T2, Serine/threonine-protein kinase 3 (Homo sapiens, UniProt Q13188); experiment: Inhibition of MST2 (unknown origin) expressed in HEK293T cells using NanoGlo as substrate incubated for 20 hrs by NanoBRET assay; type: cell-based
T2 sequence (Q13188 whole entry): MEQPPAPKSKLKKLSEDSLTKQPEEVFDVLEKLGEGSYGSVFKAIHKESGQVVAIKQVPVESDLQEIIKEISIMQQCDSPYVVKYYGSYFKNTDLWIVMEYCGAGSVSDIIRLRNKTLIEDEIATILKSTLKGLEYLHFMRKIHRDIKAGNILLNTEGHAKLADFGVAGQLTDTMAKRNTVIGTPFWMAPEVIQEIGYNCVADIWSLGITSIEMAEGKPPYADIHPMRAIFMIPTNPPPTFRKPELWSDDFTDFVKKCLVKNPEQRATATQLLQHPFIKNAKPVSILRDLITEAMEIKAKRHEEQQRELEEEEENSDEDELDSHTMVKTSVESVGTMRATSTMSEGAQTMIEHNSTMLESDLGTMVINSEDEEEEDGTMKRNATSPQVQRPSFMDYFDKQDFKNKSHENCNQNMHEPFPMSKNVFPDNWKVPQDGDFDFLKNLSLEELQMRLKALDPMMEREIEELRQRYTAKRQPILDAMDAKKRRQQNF

[3] = target: T3, Serine/threonine-protein kinase 24 (Homo sapiens, UniProt Q9Y6E0); experiment: Inhibition of MST3 (unknown origin) expressed in HEK293T cells using NanoGlo as substrate incubated for 20 hrs by NanoBRET assay; type: cell-based
Target sequence in this assay (Q9Y6E0 whole entry): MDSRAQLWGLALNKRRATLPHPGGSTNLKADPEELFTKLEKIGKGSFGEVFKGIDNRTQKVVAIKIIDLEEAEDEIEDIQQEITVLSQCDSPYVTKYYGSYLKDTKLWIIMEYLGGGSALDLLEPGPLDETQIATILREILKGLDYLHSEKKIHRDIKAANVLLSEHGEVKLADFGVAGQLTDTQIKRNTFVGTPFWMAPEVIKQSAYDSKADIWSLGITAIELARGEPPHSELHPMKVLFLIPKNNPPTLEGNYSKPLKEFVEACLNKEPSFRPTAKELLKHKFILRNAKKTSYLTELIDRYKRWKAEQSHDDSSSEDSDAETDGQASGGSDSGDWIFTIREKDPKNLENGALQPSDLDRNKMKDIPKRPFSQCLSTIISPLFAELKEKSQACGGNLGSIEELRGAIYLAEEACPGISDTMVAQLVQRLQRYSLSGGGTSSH

[4] = target: T4, Serine/threonine-protein kinase 26 (Homo sapiens, UniProt Q9P289); experiment: Inhibition of MST4 (unknown origin) expressed in HEK293T cells using NanoGlo as substrate incubated for 20 hrs by NanoBRET assay; type: cell-based
Target sequence in this assay (Q9P289 whole entry): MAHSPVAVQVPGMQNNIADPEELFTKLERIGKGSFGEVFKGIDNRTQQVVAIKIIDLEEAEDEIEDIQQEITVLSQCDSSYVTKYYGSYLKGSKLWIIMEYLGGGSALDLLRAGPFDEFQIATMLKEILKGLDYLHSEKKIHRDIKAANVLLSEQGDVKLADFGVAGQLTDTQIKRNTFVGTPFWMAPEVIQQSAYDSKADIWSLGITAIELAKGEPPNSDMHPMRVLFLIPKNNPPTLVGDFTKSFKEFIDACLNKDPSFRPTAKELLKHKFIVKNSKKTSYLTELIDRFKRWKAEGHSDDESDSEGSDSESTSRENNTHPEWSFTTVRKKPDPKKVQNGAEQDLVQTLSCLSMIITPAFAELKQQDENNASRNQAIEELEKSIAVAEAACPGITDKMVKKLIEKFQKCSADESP

[5] = target: Serine/threonine-protein kinase SIK2 (Homo sapiens, UniProt Q9H0K1); experiment: Inhibition of SIK2 (unknown origin) expressed in HEK293T cells using NanoGlo as substrate incubated for 20 hrs by NanoBRET assay; type: cell-based
Serine/threonine-protein kinase SIK2, sequence (Q9H0K1 whole entry): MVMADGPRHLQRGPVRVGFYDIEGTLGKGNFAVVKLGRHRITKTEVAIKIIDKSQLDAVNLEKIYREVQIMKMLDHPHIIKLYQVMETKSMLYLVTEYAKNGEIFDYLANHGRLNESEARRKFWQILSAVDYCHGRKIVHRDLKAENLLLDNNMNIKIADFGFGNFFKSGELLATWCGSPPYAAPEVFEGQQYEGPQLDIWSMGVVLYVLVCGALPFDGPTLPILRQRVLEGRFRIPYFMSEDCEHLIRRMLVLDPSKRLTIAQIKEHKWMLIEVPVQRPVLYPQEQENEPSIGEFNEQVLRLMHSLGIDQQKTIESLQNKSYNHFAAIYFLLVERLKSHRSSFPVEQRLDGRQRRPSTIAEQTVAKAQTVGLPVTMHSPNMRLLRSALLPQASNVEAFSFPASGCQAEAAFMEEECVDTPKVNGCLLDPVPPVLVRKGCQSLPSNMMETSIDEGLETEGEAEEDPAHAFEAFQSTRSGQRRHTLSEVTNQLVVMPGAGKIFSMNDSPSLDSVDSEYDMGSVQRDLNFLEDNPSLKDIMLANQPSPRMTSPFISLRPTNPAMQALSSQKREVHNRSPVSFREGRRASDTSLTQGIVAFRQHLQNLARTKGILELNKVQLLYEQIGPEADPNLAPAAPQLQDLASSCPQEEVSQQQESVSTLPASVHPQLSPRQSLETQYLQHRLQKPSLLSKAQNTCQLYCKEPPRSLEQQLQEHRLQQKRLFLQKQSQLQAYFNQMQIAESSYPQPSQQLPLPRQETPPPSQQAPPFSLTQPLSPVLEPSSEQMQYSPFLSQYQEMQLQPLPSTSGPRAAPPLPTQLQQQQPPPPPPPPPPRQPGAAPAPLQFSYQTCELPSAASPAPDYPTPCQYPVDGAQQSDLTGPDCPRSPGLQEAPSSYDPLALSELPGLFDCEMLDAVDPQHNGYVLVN

[6] = target: T5, Serine/threonine-protein kinase 4 (Homo sapiens) (UniProt Q13043); experiment: Binding affinity to recombinant MST1 (unknown origin) assessed as change in melting temperature by DSF analysis
T5 sequence (whole entry): T1 sequence (Q13043 whole entry)

[7] = target: T6, Serine/threonine-protein kinase 3 (Homo sapiens) (UniProt Q13188); experiment: Binding affinity to recombinant MST2 (unknown origin) assessed as change in melting temperature by DSF analysis
T6 sequence (whole entry): T2 sequence (Q13188 whole entry)

[8] = target: T3, Serine/threonine-protein kinase 24; experiment: Binding affinity to recombinant MST3 (unknown origin) assessed as change in melting temperature by DSF analysis
Target sequence in this assay (Q9Y6E0 whole entry, looked up): as the sequence (Q9Y6E0 whole entry) above

[9] = target: T4, Serine/threonine-protein kinase 26; experiment: Binding affinity to recombinant MST4 (unknown origin) assessed as change in melting temperature by DSF analysis
Target sequence in this assay (Q9P289 2-416 limits assumed): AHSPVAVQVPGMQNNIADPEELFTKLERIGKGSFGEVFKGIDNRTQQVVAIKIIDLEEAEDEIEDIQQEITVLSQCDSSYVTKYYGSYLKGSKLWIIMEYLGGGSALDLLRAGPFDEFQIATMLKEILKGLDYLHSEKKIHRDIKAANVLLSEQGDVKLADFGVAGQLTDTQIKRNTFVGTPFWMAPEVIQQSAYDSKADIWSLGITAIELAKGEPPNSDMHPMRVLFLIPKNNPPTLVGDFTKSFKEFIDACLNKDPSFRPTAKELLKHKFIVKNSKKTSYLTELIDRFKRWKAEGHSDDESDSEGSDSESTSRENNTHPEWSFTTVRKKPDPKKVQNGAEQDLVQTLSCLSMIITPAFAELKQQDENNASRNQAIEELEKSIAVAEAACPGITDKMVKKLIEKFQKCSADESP

[10] = target: Serine/threonine-protein kinase PAK 1 (Homo sapiens) (UniProt Q13153); experiment: Binding affinity to recombinant PAK1 (unknown origin) assessed as change in melting temperature by DSF analysis
Serine/threonine-protein kinase PAK 1 (Homo sapiens), sequence (Q13153 whole entry): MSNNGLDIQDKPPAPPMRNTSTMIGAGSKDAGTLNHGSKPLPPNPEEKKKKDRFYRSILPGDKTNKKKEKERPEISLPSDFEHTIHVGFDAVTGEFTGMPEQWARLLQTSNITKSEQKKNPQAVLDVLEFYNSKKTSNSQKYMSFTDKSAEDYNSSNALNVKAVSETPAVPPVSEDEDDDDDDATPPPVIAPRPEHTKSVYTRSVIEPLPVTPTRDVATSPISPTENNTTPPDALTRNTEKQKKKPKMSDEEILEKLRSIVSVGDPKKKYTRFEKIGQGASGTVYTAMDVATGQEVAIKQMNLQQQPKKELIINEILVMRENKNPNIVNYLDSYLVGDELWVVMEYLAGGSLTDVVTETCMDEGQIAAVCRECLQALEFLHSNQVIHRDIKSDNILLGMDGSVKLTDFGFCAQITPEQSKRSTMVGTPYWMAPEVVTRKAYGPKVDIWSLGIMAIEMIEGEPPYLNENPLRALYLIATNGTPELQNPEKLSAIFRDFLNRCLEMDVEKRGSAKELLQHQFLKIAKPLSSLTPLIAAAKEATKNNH

[11] = target: T3, Serine/threonine-protein kinase 24; experiment: Inhibition of MST3 (unknown origin) expressed in lysed HEK293T cells using NanoGlo as substrate incubated for 20 hrs by NanoBRET assay; type: cell-based
Target sequence in this assay (Q9Y6E0 whole entry): as the sequence (Q9Y6E0 whole entry) above

Compound	pEC50 [1]	pEC50 [2]	pEC50 [3]	pEC50 [4]	pEC50 [5]	ΔTm [6]	ΔTm [7]	ΔTm [8]	ΔTm [9]	ΔTm [10]	pEC50 [11]
CNc1ncc2cc(-c3ccc(-c4cccc(C)n4)cc3Cl)c(=O)n(C)c2n1	4.89	5.12	6.11	5.34	5.49	1.6 °C	1.3 °C	3.7 °C	1.6 °C	3.2 °C	
COc1cc(N2CCN(C)CC2)ccc1Nc1ncc2cc(-c3ccc(-c4cccc(C)n4)cc3Cl)c(=O)n(CCCCN)c2n1	< 4.30	4.77		4.42	6.82	4 °C	7.4 °C	13.5 °C	6.7 °C	8.8 °C	6.56
COc1cc(N2CCOCC2)ccc1Nc1ncc2cc(-c3ccc(-c4cccc(C)n4)cc3Cl)c(=O)n(CCCCN)c2n1	5.68	5.51		5.92	7.07	4.6 °C	7.5 °C	11 °C	9.2 °C	5 °C	6.94
CNc1ncc2cc(-c3ccc(-c4cccc(C)n4)cc3Cl)c(=O)n(CCCO)c2n1	5.17	5.22	6.42	5.35	6.30	3.4 °C	6.3 °C	6.2 °C	5 °C	4.5 °C	
CNc1ncc2cc(-c3ccc(-c4cccc(C)n4)cc3Cl)c(=O)n(CCCOC)c2n1	5.04	5.03	6.23	5.12	5.77	3.6 °C	6.2 °C	5.1 °C	4.1 °C	5.1 °C	
CNc1ncc2cc(-c3ccc(-c4cccc(C)n4)cc3Cl)c(=O)n(CCCN)c2n1	4.58	4.70	6.60	5.37	6.79	2.8 °C	4.4 °C	7.9 °C	7.2 °C	4 °C	
COc1ccc(O)c(Nc2ncc3cc(-c4ccc(-c5cccc(C)n5)cc4Cl)c(=O)n(CCCCN)c3n2)c1	5.48	5.51		6.10	6.27	3.8 °C	5.4 °C	11 °C	8.3 °C	4.5 °C	6.79
Cc1cccc(-c2ccc(-c3cc4cnc(NCCCN5CCNCC5)nc4n(CCCCN)c3=O)c(Cl)c2)n1	< 4.30	< 4.30		5.55	5.23	3.1 °C	15.8 °C	13 °C	8.9 °C	5 °C	7.48
Cc1cccc(-c2ccc(-c3cc4cnc(NCCCc5ccc(N)cc5)nc4n(CCCCN)c3=O)c(Cl)c2)n1	5.47	5.44		6.17	6.29	4.9 °C	7.2 °C	12.2 °C	9.7 °C	6.8 °C	7.24
Cc1cccc(-c2ccc(-c3cc4cnc(Nc5ccc(O)cc5)nc4n(CCCCN)c3=O)c(Cl)c2)n1	6.38	6.43		7.36	7.21	8 °C	13.7 °C	17.1 °C	15 °C	9.2 °C	7.64
CNc1ncc2cc(-c3ccc(-c4cccc(C)n4)cc3Cl)c(=O)n(CCN)c2n1	< 4.30	4.86	5.92	4.83	5.85	1.6 °C	1.6 °C	5.5 °C	3.3 °C	1.3 °C	
Cc1cccc(-c2ccc(-c3cc4cnc(Nc5ccc(C)c(O)c5)nc4n(CCCCN)c3=O)c(Cl)c2)n1	6.28	6.27		7.22	7.43	8.1 °C	13.2 °C	17.5 °C	15.9 °C	9.1 °C	7.47
CNc1ncc2cc(-c3ccc(-c4cccc(C)n4)cc3Cl)c(=O)n(CCCCCN)c2n1	5.60	5.60	7.04	5.68	7.21	5.2 °C	10.7 °C	9.2 °C	7.1 °C	6.3 °C	
CNc1ncc2cc(-c3ccc(-c4cccc(C)n4)cc3Cl)c(=O)n(CCCCOC)c2n1	5.28	5.34	6.21	5.26	5.89	3.3 °C	8.6 °C	6.2 °C	3.6 °C	4.8 °C	
Cc1cccc(-c2ccc(-c3cc4cnc(Nc5ccc(F)c(CO)c5)nc4n(CCCCN)c3=O)c(Cl)c2)n1	6.50	6.74		7.36	7.29	8.6 °C	16 °C	16.9 °C	14.8 °C	9.3 °C	8.00
CNc1ncc2cc(-c3ccc(-c4cccc(C)n4)cc3Cl)c(=O)n(CCCCO)c2n1	5.47	5.44	6.61	5.40	6.86	3.8 °C	7.1 °C	5.7 °C	5 °C	5 °C	
CNc1ncc2cc(-c3ccc(-c4cccc(C)n4)cc3Cl)c(=O)n(CCOC)c2n1	4.50	4.55	6.38	4.89	5.60	3.9 °C	5 °C	6.7 °C	4.4 °C	4.1 °C	
CNc1ncc2cc(-c3ccc(-c4cccc(C)n4)cc3Cl)c(=O)n(C[C@H]3CC[C@H](N)CC3)c2n1	6.18	6.26	7.32	6.30	7.80	7.9 °C	10.8 °C	10.8 °C	8.2 °C	8.4 °C	
CNc1ncc2cc(-c3ccc(-c4cccc(C)n4)cc3Cl)c(=O)n(CCO)c2n1	5.11	5.36	6.54	5.44	6.06	4 °C	9 °C		5.8 °C	5 °C	
CNc1ncc2cc(-c3ccc(-c4cccc(C)n4)cc3Cl)c(=O)[nH]c2n1					5.80	0 °C	0.3 °C	0.6 °C	0 °C	0 °C	
CNc1ncc2cc(-c3ccc(-c4cccc(C)n4)cc3Cl)c(=O)n(CCCCCO)c2n1	5.52	5.55	6.50	5.66	6.58	2.4 °C	6.1 °C	6.6 °C	5.5 °C	6 °C	
CNc1ncc2cc(-c3ccc(-c4cccc(C)n4)cc3Cl)c(=O)n(C[C@H]3OC[C@H](N)CO3)c2n1	4.52	5.34									
CNc1ncc2cc(-c3ccc(-c4cccc(C)n4)cc3Cl)c(=O)n(CCC3CCNCC3)c2n1	5.80	5.74	7.22	6.10	7.11	6 °C	8 °C		7.8 °C	8.6 °C	
